Measured values reported in patent US20240208895A1, “BRANCHED-CHAIN AMINO ACID DERIVATIVES TO TREAT DISEASE” (INTRABIO LTD., priority 2021, published 2024).

Target: T1, human transporter MCT1 (Homo sapiens, UniProt P53985)
T1 construct: expressed in transfected cells; host or cells: MDCK-II
T1 sequence (P53985 1-500): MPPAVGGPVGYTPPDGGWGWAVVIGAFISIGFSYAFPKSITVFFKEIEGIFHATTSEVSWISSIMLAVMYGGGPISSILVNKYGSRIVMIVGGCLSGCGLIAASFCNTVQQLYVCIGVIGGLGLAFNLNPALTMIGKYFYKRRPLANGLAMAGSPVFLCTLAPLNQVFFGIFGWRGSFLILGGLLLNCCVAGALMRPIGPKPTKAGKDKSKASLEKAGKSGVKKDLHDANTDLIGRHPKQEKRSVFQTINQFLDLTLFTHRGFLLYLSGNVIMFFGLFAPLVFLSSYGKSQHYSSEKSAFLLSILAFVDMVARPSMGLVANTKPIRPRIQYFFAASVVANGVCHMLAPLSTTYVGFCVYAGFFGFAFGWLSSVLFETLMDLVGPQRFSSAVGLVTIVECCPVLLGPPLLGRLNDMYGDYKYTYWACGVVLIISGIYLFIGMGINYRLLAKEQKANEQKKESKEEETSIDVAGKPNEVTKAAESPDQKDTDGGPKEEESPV
Test: Human MCT1-mediated transport in MDCK-II cells (Example 9)
Type: cell-based
Conditions: MDCK-II cells expressing human MCT1, pH 5.5, 1 minute, normalized to Vmax of thiophene-2-glyoxylic acid
Experimental: Representative Compounds of the Disclosure are tested in (i) MDCK-II cells expressing human transporter MCT1; and (ii) MDCK-II cells transfected with a control vector (GFP) as control cells for human transporter MCT1. 2-Thiophene-glyoxylic acid (TPGA) is the positive control for transport.
• 1. A stock solution is prepared with the test article (Compound of the Disclosure) in DMSO or in HBSS-Bis-Tris. • 2. Final assay solutions of probe substrate or test article contain 0.5% (v/v) DMSO (vehicle control). • 3. Test article concentrations are 10 μM, 30 μM, 100 μM, 300 μM, 1000 μM, 3000 μM, and 10000 μM.
MDCK-II cells are maintained in DMEM with low glucose and 10% FBS. Cells passages up to 40 are seeded at 60K±10K cells/well on 96-well, transwell membrane plates approximately 24 hours before transfection. Transport assays are carried out approximately 48 hours after transfection.
• 1. Test system: • a. Test system: 96-well cell culture plate with wells containing a monolayer of MDCK-II cells grown on a permeable support and a corresponding 96-well receiver tray. Cell plates are maintained at 37° C. in 5% CO2 atmosphere prior to initiation of the transport experiment. • b. Pre-incubation is conducted in HBSS, pH 7.4. Transport experiments are conducted in HBSS with Bis-Tris, pH 5.5, without phenol red. Pre-incubation and incubation are conducted at ambient temperatures. • c. Each condition is run in triplicate wells. • d. […] The result from the control cells is used to correct for substrate permeation by routes other than the transporter being investigated in the study. • 2. Prepare the 96-well plate as follows: • a. Wash the basal side of the culture plate insert with HBSS three times. After the final wash, blot the basal side of the wells and keep this side dry. • b. Wash the culture plate wells with HBSS three times. The wells of the culture plate serve as the apical compartment. • 3. Aspirate the final wash from the culture plate. The wells of the culture plate serve as the apical compartment. Add 100 μL of HBSS pH 7.4 pre-incubation buffer containing vehicle to the apical compartments. • 4. Incubate the plates with orbital shaking at approximately 60 RPM for the pre-incubation time specified in Table 1 of this protocol. • 5. Aspirate the pre-incubation buffer from the apical compartment of the plates. Add 100 μL of the experimental buffer that is prepared as follows and maintained at ambient temperatures. • a. For the probe substrate transport assay, the HBSS with Bis-Tris, pH 5.5 in each well contains the probe substrate at 500 μM (positive control for transport) and vehicle control. • b. For the test article assays, the HBSS with Bis-Tris, pH 5.5 in each well contains the test article at 10 μM, 30 μM, 100 μM, 300 μM, 1000 μM, 3000 μM, and 10000 μM. • 6. Incubate at ambient temperature with orbital shaking at approximately 60 RPM for the incubation time of 1 minute. • 7. […]
• 1. The amount of radiolabeled probe substrate will be quantified with radiometric detection on a 1450 Microbeta (Perkin-Elmer). • 2. The amount of non-radiolabeled probe substrate or test article will be quantified by LC-MS/MS. • 3. […] For uptake assays, the net transporter-mediated uptake rate (V) of the substrate by each SLC transporter will be calculated as follows:
[formula] • 5. For transport kinetics assessment, Km and Vmax will be calculated by non-linear regression using the Michaelis-Menten equation. • 6. […]

uptake mediated by MCT1: transported
Structure (SMILES): CC(=O)N[C@@H](CC(C)C)C(=O)O [N-acetyl-L-leucine]
